Laboratory results as given in ChEMBL document CHEMBL3885881, “DrugMatrix”.

Species: Rattus norvegicus
Assay: DrugMatrix - Regimen: Daily Repeat
Assay type: toxicity, organism-based, Sprague-Dawley
Set-up: regimen Daily Repeat, gender Male, age 6-8 weeks
Details: in vivo, ip, 50 mg/kg, route intraperitoneal, dose level High, […]; for ABSOLUTE BASOPHIL / ABSOLUTE EOSINOPHIL / ABSOLUTE LYMPHOCYTE / ABSOLUTE MONOCYTE / ABSOLUTE SEGMENTED NEUTROPHIL / BASOPHIL / EOSINOPHIL / ERYTHROCYTE COUNT / HEMATOCRIT / HEMOGLOBIN / LEUKOCYTE COUNT / LYMPHOCYTE / MEAN CORPUSCULAR HEMOGLOBIN / MEAN CORPUSCULAR HEMOGLOBIN CONCENTRATION / MEAN CORPUSCULAR VOLUME / MONOCYTE / NEUTROPHIL / NUCLEATED RED BLOOD CELLS / PLATELET COUNT: tissue Blood; for ALANINE AMINOTRANSFERASE / ALBUMIN / ALKALINE PHOSPHATASE / ASPARTATE AMINOTRANSFERASE / BLOOD UREA NITROGEN / CARBON DIOXIDE / CHLORIDE / CHOLESTEROL / CREATININE / GLUCOSE / LACTATE DEHYDROGENASE / LIPASE / PHOSPHORUS / POTASSIUM / SODIUM / TOTAL BILIRUBIN / TOTAL PROTEIN / URIC ACID: tissue Plasma

ClC(Cl)=C(Cl)C(Cl)=C(Cl)Cl [HEXACHLOROBUTADIENE]
ABSOLUTE BASOPHIL (72 h, time 3 day): 0 CELLS/uL
ABSOLUTE EOSINOPHIL (72 h, time 3 day): 265.33 CELLS/uL
ABSOLUTE LYMPHOCYTE (72 h, time 3 day): 14659.33 CELLS/uL
ABSOLUTE MONOCYTE (72 h, time 3 day): 513.33 CELLS/uL
ABSOLUTE SEGMENTED NEUTROPHIL (72 h, time 3 day): 2862 CELLS/uL
BASOPHIL (72 h, time 3 day): 0%
EOSINOPHIL (72 h, time 3 day): 1.33%
ERYTHROCYTE COUNT (72 h, time 3 day): 6.15 x10E6/uL
HEMATOCRIT (72 h, time 3 day): 36.87%
HEMOGLOBIN (72 h, time 3 day): 13.3 G/DL
LEUKOCYTE COUNT (72 h, time 3 day): 18.3 x10E3/uL
LYMPHOCYTE (72 h, time 3 day): 80.67%
MEAN CORPUSCULAR HEMOGLOBIN (72 h, time 3 day): 21.63 pg
MEAN CORPUSCULAR HEMOGLOBIN CONCENTRATION (72 h, time 3 day): 36.1 G/DL
MEAN CORPUSCULAR VOLUME (72 h, time 3 day): 60 fL
MONOCYTE (72 h, time 3 day): 2.67%
NEUTROPHIL (72 h, time 3 day): 15.33%
NUCLEATED RED BLOOD CELLS (72 h, time 3 day): 0 /100WBC
PLATELET COUNT (72 h, time 3 day): 1031 x10E3/uL
ALANINE AMINOTRANSFERASE (72 h, time 3 day): 36.33 u/L
ALBUMIN (72 h, time 3 day): 4.23 G/DL
ALKALINE PHOSPHATASE (72 h, time 3 day): 328.33 u/L
ASPARTATE AMINOTRANSFERASE (72 h, time 3 day): 101 u/L
BLOOD UREA NITROGEN (72 h, time 3 day): 11.67 mg/dL
CARBON DIOXIDE (72 h, time 3 day): 30.33 mmol/L
CHLORIDE (72 h, time 3 day): 102 MEQ/L
CHOLESTEROL (72 h, time 3 day): 84.67 mg/dL
CREATININE (72 h, time 3 day): 0.16 mg/dL
GLUCOSE (72 h, time 3 day): 173 mg/dL
LACTATE DEHYDROGENASE (72 h, time 3 day): 166 u/L
LIPASE (72 h, time 3 day): 9.67 u/L
PHOSPHORUS (72 h, time 3 day): 11.6 mg/dL
POTASSIUM (72 h, time 3 day): 6.25 MEQ/L
SODIUM (72 h, time 3 day): 147.3 MEQ/L
TOTAL BILIRUBIN (72 h, time 3 day): 0.13 mg/dL
TOTAL PROTEIN (72 h, time 3 day): 6.3 G/DL
URIC ACID (72 h, time 3 day): 2.6 mg/dL
ABSOLUTE BASOPHIL (120 h, time 5 day): 0 CELLS/uL
ABSOLUTE EOSINOPHIL (120 h, time 5 day): 230 CELLS/uL
ABSOLUTE LYMPHOCYTE (120 h, time 5 day): 9645 CELLS/uL
ABSOLUTE MONOCYTE (120 h, time 5 day): 302 CELLS/uL
ABSOLUTE SEGMENTED NEUTROPHIL (120 h, time 5 day): 1323 CELLS/uL
BASOPHIL (120 h, time 5 day): 0%
EOSINOPHIL (120 h, time 5 day): 2%
ERYTHROCYTE COUNT (120 h, time 5 day): 5.76 x10E6/uL
HEMATOCRIT (120 h, time 5 day): 36.65%
HEMOGLOBIN (120 h, time 5 day): 13.3 G/DL
LEUKOCYTE COUNT (120 h, time 5 day): 11.5 x10E3/uL
LYMPHOCYTE (120 h, time 5 day): 84.5%
MEAN CORPUSCULAR HEMOGLOBIN (120 h, time 5 day): 23.1 pg
MEAN CORPUSCULAR HEMOGLOBIN CONCENTRATION (120 h, time 5 day): 36.25 G/DL
MEAN CORPUSCULAR VOLUME (120 h, time 5 day): 63.6 fL
MONOCYTE (120 h, time 5 day): 2.5%
NEUTROPHIL (120 h, time 5 day): 11%
NUCLEATED RED BLOOD CELLS (120 h, time 5 day): 0 /100WBC
PLATELET COUNT (120 h, time 5 day): 1216 x10E3/uL
ALANINE AMINOTRANSFERASE (120 h, time 5 day): 39 u/L
ALBUMIN (120 h, time 5 day): 4.3 G/DL
ALKALINE PHOSPHATASE (120 h, time 5 day): 279.5 u/L
ASPARTATE AMINOTRANSFERASE (120 h, time 5 day): 100.5 u/L
BLOOD UREA NITROGEN (120 h, time 5 day): 11.5 mg/dL
CARBON DIOXIDE (120 h, time 5 day): 32.5 mmol/L
CHLORIDE (120 h, time 5 day): 101 MEQ/L
CHOLESTEROL (120 h, time 5 day): 106 mg/dL
CREATININE (120 h, time 5 day): 0.19 mg/dL
GLUCOSE (120 h, time 5 day): 171.5 mg/dL
LACTATE DEHYDROGENASE (120 h, time 5 day): 160.5 u/L
LIPASE (120 h, time 5 day): 9.5 u/L
PHOSPHORUS (120 h, time 5 day): 13.95 mg/dL
POTASSIUM (120 h, time 5 day): 6 MEQ/L
SODIUM (120 h, time 5 day): 147.1 MEQ/L
TOTAL BILIRUBIN (120 h, time 5 day): 0.2 mg/dL
TOTAL PROTEIN (120 h, time 5 day): 6.6 G/DL
URIC ACID (120 h, time 5 day): 1.75 mg/dL
ABSOLUTE BASOPHIL (time 14 day): 0 CELLS/uL
ABSOLUTE EOSINOPHIL (time 14 day): 146.4 CELLS/uL
ABSOLUTE LYMPHOCYTE (time 14 day): 11678.6 CELLS/uL
ABSOLUTE MONOCYTE (time 14 day): 306.2 CELLS/uL
ABSOLUTE SEGMENTED NEUTROPHIL (time 14 day): 1488.8 CELLS/uL
BASOPHIL (time 14 day): 0%
EOSINOPHIL (time 14 day): 1.2%
ERYTHROCYTE COUNT (time 14 day): 6.11 x10E6/uL
HEMATOCRIT (time 14 day): 35.9%
HEMOGLOBIN (time 14 day): 13.2 G/DL
LEUKOCYTE COUNT (time 14 day): 13.62 x10E3/uL
LYMPHOCYTE (time 14 day): 86.4%
MEAN CORPUSCULAR HEMOGLOBIN (time 14 day): 21.6 pg
MEAN CORPUSCULAR HEMOGLOBIN CONCENTRATION (time 14 day): 36.82 G/DL
MEAN CORPUSCULAR VOLUME (time 14 day): 58.64 fL
MONOCYTE (time 14 day): 2.2%
NEUTROPHIL (time 14 day): 10.2%
NUCLEATED RED BLOOD CELLS (time 14 day): 0 /100WBC
PLATELET COUNT (time 14 day): 1058.6 x10E3/uL
ALANINE AMINOTRANSFERASE (time 14 day): 31.2 u/L
ALBUMIN (time 14 day): 4.2 G/DL
ALKALINE PHOSPHATASE (time 14 day): 238.6 u/L
ASPARTATE AMINOTRANSFERASE (time 14 day): 99.6 u/L
BLOOD UREA NITROGEN (time 14 day): 13.8 mg/dL
CARBON DIOXIDE (time 14 day): 30.8 mmol/L
CHLORIDE (time 14 day): 102 MEQ/L
CHOLESTEROL (time 14 day): 83.6 mg/dL
CREATININE (time 14 day): 0.2 mg/dL
GLUCOSE (time 14 day): 149.2 mg/dL
LACTATE DEHYDROGENASE (time 14 day): 133.2 u/L
LIPASE (time 14 day): 10.4 u/L
PHOSPHORUS (time 14 day): 9.96 mg/dL
POTASSIUM (time 14 day): 5.75 MEQ/L
SODIUM (time 14 day): 145.2 MEQ/L
TOTAL BILIRUBIN (time 14 day): 0.18 mg/dL
TOTAL PROTEIN (time 14 day): 6.18 G/DL
URIC ACID (time 14 day): 1 mg/dL
